From patent US20080207667A1 (priority 2007, published 2008)

Legend:
[1] = test system: subject suffering from a respiratory disorder (former smoker); test: Spirometry pre and post treatment with nebulized nalbuphine (Example 1); assay type: in vivo, human; settings: for FEF (25–75%) % of Prediction / FEF (25–75%) (L/S) Actual / FEV1 % of Prediction / FEV1 (L) Actual / FEV1/FVC % of Prediction / FEV1/FVC (%) Actual / FVC % of Prediction / FVC (L) Actual / PEF % of Prediction / PEF (L/S) Actual / FEF (25–75%) % Change / FEV1 % Change / FEV1/FVC % Change / FVC % Change / PEF % Change: post nebulized nalbuphine
Source text: This example illustrates the use of nalbuphine to treat a subject suffering from a respiratory disorder. The subject was a former smoker. Spirometry measurements were taken pre and post treatment with nebulized nalbuphine.

asthmatic = test: Spirometry pre and post treatment with nebulized nalbuphine (Example 2); assay type: in vivo, human
Experimental: In this example, an asthmatic taking advair diskus for treatment of asthma was treated with nalbuphine according to the present method. Spirometry measurements were taken pre and post treatment with nebulized nalbuphine.

smoker = test: Spirometry pre and post treatment with nebulized nalbuphine (Example 3); assay type: in vivo, human
Source text: Spirometry measurements were taken pre and post treatment with nebulized nalbuphine.

[2] = nalbuphine and its salts; cited from earlier work
[3] = Treatment #1, vs pre-nalbuphine
[4] = Treatment #1, vs pre-nalbuphine, listed as nalbuphine
[5] = Treatment #2, vs pre-nalbuphine
[6] = Treatment #3, vs pre-nalbuphine
[7] = asthmatic taking advair diskus, post nebulized nalbuphine
[8] = post nebulized nalbuphine vs pre-nalbuphine
[9] = smoker treated with combivent and spiriva, post nebulized nalbuphine

Which “FEF (25–75%) % of Prediction” value ([1]; Treatment #1) does the source give for `Oc1ccc2c3c1O[C@H]1[C@@H](O)CC[C@@]4(O)[C@@H](C2)N(CC2CCC2)CC[C@]314` [Nalbuphine, nalbuphine] here?
Its value is 130%.

What about the “FEF (25–75%) (L/S) Actual” value ([1]; Treatment #1) of the same molecule?
The value was 5.043 L/S.

What about the “FEV1 % of Prediction” value ([1]; Treatment #1) of the same molecule?
Its value is 139%.

What about the “FEV1 (L) Actual” value ([1]; Treatment #1) of the same molecule?
Its value is 4.223 L.

And the “FEV1/FVC % of Prediction” value ([1]; Treatment #1)?
The value was 106%.

What about the “FEV1/FVC (%) Actual” value ([1]; Treatment #1) of the same molecule?
The value was 84%.

What about the “FVC % of Prediction” value ([1]; Treatment #1) of the same molecule?
The value was 133%.

What about the “FVC (L) Actual” value ([1]; Treatment #1) of the same molecule?
Its value is 5.035 L.

What about the “PEF % of Prediction” value ([1]; Treatment #1) of the same molecule?
The value was 93%.

What about the “PEF (L/S) Actual” value ([1]; Treatment #1) of the same molecule?
Its value is 5.98 L/S.

What about the “FEF (25–75%) % Change” value [1, 3] of the same molecule?
The value was 37.50%.

And the “FEV1 % Change” value [1, 3]?
Its value is 46%.

And the “FEV1/FVC % Change” value [1, 3]?
The value was 2%.

What about the “FVC % Change” value [1, 3] of the same molecule?
The value was 44.0%.

And the “PEF % Change” value [1, 3]?
Its value is −6.4%.

And the “FEV1 % Change” value [1, 4]?
Its value is “forty six”.

What about the “FVC % Change” value [1, 4] of the same molecule?
Its value is “forty-four”.

And the “FEF (25–75%) % of Prediction” value ([1]; Treatment #2)?
The value was 137%.

And the “FEF (25–75%) (L/S) Actual” value ([1]; Treatment #2)?
Its value is 5.327 L/S.

And the “FEV1 % of Prediction” value ([1]; Treatment #2)?
The value was 134%.

What about the “FEV1 (L) Actual” value ([1]; Treatment #2) of the same molecule?
Its value is 4.259 L.

And the “FEV1/FVC % of Prediction” value ([1]; Treatment #2)?
Its value is 107%.

What about the “FEV1/FVC (%) Actual” value ([1]; Treatment #2) of the same molecule?
The value was 84%.

What about the “FVC % of Prediction” value ([1]; Treatment #2) of the same molecule?
The value was 127%.

What about the “FVC (L) Actual” value ([1]; Treatment #2) of the same molecule?
Its value is 4.827 L.

And the “PEF % of Prediction” value ([1]; Treatment #2)?
The value was 113%.

And the “PEF (L/S) Actual” value ([1]; Treatment #2)?
The value was 7.297 L/S.

And the “FEF (25–75%) % Change” value [1, 5]?
The value was 45%.

And the “FEV1 % Change” value [1, 5]?
Its value is 40%.

And the “FEV1/FVC % Change” value [1, 5]?
Its value is 2%.

And the “FVC % Change” value [1, 5]?
The value was 38%.

And the “PEF % Change” value [1, 5]?
The value was 14%.

What about the “FEF (25–75%) % of Prediction” value ([1]; Treatment #3) of the same molecule?
The value was 129%.

And the “FEF (25–75%) (L/S) Actual” value ([1]; Treatment #3)?
Its value is 4.998 L/S.

And the “FEV1 % of Prediction” value ([1]; Treatment #3)?
The value was 136%.

And the “FEV1 (L) Actual” value ([1]; Treatment #3)?
Its value is 4.11 L.

And the “FEV1/FVC % of Prediction” value ([1]; Treatment #3)?
Its value is 110%.

What about the “FEV1/FVC (%) Actual” value ([1]; Treatment #3) of the same molecule?
The value was 87%.

And the “FVC % of Prediction” value ([1]; Treatment #3)?
The value was 125%.

And the “FVC (L) Actual” value ([1]; Treatment #3)?
Its value is 4.733 L.

What about the “PEF % of Prediction” value ([1]; Treatment #3) of the same molecule?
Its value is 112%.

And the “PEF (L/S) Actual” value ([1]; Treatment #3)?
Its value is 7.225 L/S.

What about the “FEF (25–75%) % Change” value [1, 6] of the same molecule?
Its value is 36%.

What about the “FEV1 % Change” value [1, 6] of the same molecule?
Its value is 42%.

What about the “FEV1/FVC % Change” value [1, 6] of the same molecule?
Its value is 6%.

What about the “FVC % Change” value [1, 6] of the same molecule?
Its value is 35%.

What about the “PEF % Change” value [1, 6] of the same molecule?
Its value is 13%.

And the “lung capacity and airflow after treatment” value ([1]; summary in words)?
Its value is “marked improvement in lung capacity and airflow”.

And the “FEV1 % of Prediction” value (asthmatic; [7])?
The value was 35%.

And the “FEV1 (L) Actual” value (asthmatic; [7])?
Its value is 0.555 L.

What about the “FVC % of Prediction” value (asthmatic; [7]) of the same molecule?
The value was 54%.

And the “FVC (L) Actual” value (asthmatic; [7])?
The value was 1.155 L.

And the “FEV1 % Change” value (asthmatic; [8])?
Its value is 48%.

And the “FVC % Change” value (asthmatic; [8])?
Its value is 35%.

What about the “FVC and FEV1 after treatment” value (asthmatic; summary in words) of the same molecule?
The value was “dramatic increase in FVC and FEV1”.

And the “FEV1 % Change” value (smoker; [8])?
The value was 39%.

And the “FVC % Change” value (smoker; [8])?
Its value is 34%.

And the “FEV1 % of Prediction” value (smoker; [9])?
Its value is 84%.

And the “FEV1 (L) Actual” value (smoker; [9])?
Its value is 2.745 L.

And the “FVC % of Prediction” value (smoker; [9])?
The value was 78%.

What about the “FVC (L) Actual” value (smoker; [9]) of the same molecule?
Its value is 3.285 L.

And the “lung capacity and airflow after treatment” value (smoker; summary in words)?
The value was “marked improvement in lung capacity and airflow”.

And the solubility in water [2]?
The solubility in water was “sparingly soluble in water”.
